The source of these data is patent US20040087792A1, “Tryptase-inhibitors” (priority 2001, published 2004).

SMILES strings stand for the structures. Structures can show the parent of a compound that is named as a salt.

The test concerns the target human tryptase. Description: Inhibition of human tryptase (equilibrium, chromogenic substrate tos-Gly-Pro-arg-pNA). Format: biochemical. As to conditions: in the presence of substrate; heparin 0.1-50 μg/ml; cleavage monitored at 405 nm; read-out: Klapp (apparent dissociation constant Kiapp). From the text: The documented pathophysiological effects of mast cell tryptase are caused directly by the enzymatic activity of the protease. Accordingly, they are reduced or blocked by inhibitors which inhibit the enzymatic activity of the tryptase. A suitable measure for the affinity of a reversible inhibitor to the target protease is the equilibrium dissociation constant Ki of the enzyme-inhibitor complex. This Ki value can be determined via the effect of the inhibitor on the tryptase-induced cleavage of a chromogenic peptide-p-nitroanilide substrate or a fluorogenic peptide-aminomethylcoumarin substrate.
The dissociation constants for the tryptase-inhibitor complexes are determined under equilibrium conditions in accordance with the general proposals of Bieth (Bieth J G, Pathophysiological Interpretation of kinetic constants of protease inhibitors, Bull. Europ. Physiopath. Resp. 16:183-195, 1980) and the methods of Sommerhoff et al. (Sommerhoff C P et al., A Kazal-type inhibitor of human mast cell tryptase: Isolation from the medical leech Hirudo medicinalis, characterization, and sequence analysis, Biol. Chem. Hoppe-Seyler 375: 685-694, 1994).
Human tryptase is isolated from lung tissue or prepared recombinantly; the specific activity of the protease, determined by titration, is usually greater than 85% of the theoretical value. […]

Regarding `CCOC(=O)CN(CCNC(=O)OCC#Cc1ccc(C#CCOC(=O)NCCN(CC(=O)OCC)C(=O)CCc2ccc(CN)cc2)cc1)C(=O)CCc1ccc(CN)cc1` [Compound 1, 1,4-Bis-{N-[3-(4-aminomethyl-phenyl)-propionyl]-N-(ethoxycarbonyl-methyl)-amino-3-(ethyl-aminocarbonyloxy)-prop-1-ynyl}-benzene dihydrochloride], the Ki turned out to be 35 nM.
Turning to `CCOC(=O)CN(CCNC(=O)OCC#CCOC(=O)NCCN(CC(=O)OCC)C(=O)CCc1ccc(CN)cc1)C(=O)CCc1ccc(CN)cc1` [Compound 3, 1,4-Bis{N-[3-(4-(aminomethyl-phenyl)-propionyl]-N-(ethoxycarbonyl-methyl)-amino-3-(ethyl-aminocarbonyloxy)}-2-butynedihydrochloride], the Ki was 5.4 nM.
